# Test results published in patent publication US12351556B2, “Pyridin-2(1H)one derivatives, their preparation and their use for the treatment of pain” (INSTITUT NATIONAL DE LA SANTE ET DE LA RECHERCHE MEDICALE …, priority 2019, dated 2025).
# Entries after “also recorded” stand apart in the source; their conditions may differ.
# Key:
# [1] = system: inflammatory MA (face CFA model); assay: Face Complete Freund's Adjuvant (CFA) model of inflammatory mechanical allodynia; assay type: in vivo; details: rat, intracisternal 5 μL at 100 μM, 30 min before CFA
# Procedure: FIG. 1 illustrates the results obtained by the intracisternal application of compounds 19-24, 66-72 and 74-82. These compounds prevent face MA in a rat model of inflammatory pain (Complete Freund's Adjuvant (CFA), n=4-6 rats for each compound). For this assay, compounds (5 μL at 100 μM) or control vehicle were intra-cisternally administred 30 min before CFA injection.
# Face Complete Freund's Adjuvant (CFA) Model.
# CFA (Becton Dickinson) was dissolved in saline solution containing Tween 80 and paraffin oil and conserved at 4° C. For the behavioral tests, animals were briefly (<2 min) anesthetized using a mask with 2% isoflurane and received a subcutaneous injection of 25 μL of CFA (2.5 mg/kg) solution into the right vibrissa pad using a 27 Ga needle coupled to a 25 μL Hamilton syringe, as described previously. After injection, animals were awakened from anesthesia and placed in the behavioral experimental room, followed by a 120 min mechanical testing period.
# Intracisternal Injection:
# For investigating the effects of synthetized compounds upon mechanical allodynia, animals were briefly (<2 min) anesthetized using a mask with 2% isoflurane and received an intracisternal injection of 5 μL of compound (100 μM) or vehicle alone (saline+1% DMSO) using a 10 μL Hamilton syringe. After recovery (<2 min), rats were placed in an observation field (0.6×0.6 m square) under red light for a period test. 6-g von Frey filament was gently applied every 15 or 30 min onto the orofacial region by a first experimenter. The behavioral responses were observed and quantified by a second experimenter (see below).
# Behavioral Responses to Normally Innocuous (6-g Von Frey Filament) Mechanical Stimulation.
# The behavioral responses procedure was previously developed by Vos et al. 1994. A rat's response to mechanical stimulation consisted of one or more of the following elements: (1) detection, rat turn head toward stimulus; (2) withdrawal reaction, rat pull paw away or turn head away or pull it briskly backward when stimulation is applied (a withdrawal reaction is assumed to include a detection element preceding the head withdrawal and therefore consists of two responses elements); (3) escape/attack, rats avoid further contact with the stimulus, either passively by moving their bodies away from the stimulus, or actively by attacking the tip of the […]; (4) asymmetric grooming, rats display an uninterrupted series of at least three wash strokes directed to the stimulated area.
# The in vivo efficacy of some compounds was evaluated on a rat model of inflammatory MA (face CFA model; Alba-Delgado et al J. Neurosci. 2018, 38, 10489-10504) (FIG. 1). After receiving a subcutaneous injection of 25 μL of CFA (2.5 mg/kg) into the right vibrissa pad, rats develop a MA that lasts days. […] In this model of inflammatory MA, MA was suppressed in compound 69 treated rats, in comparison to animals treated with vehicle (FIG. 2A).
# p38α MAPK = p38α MAPK (Homo sapiens (Human), UniProt Q16539); assay: p38 alpha IC50; assay type: biochemical; details: p38 alpha; read-out: Mean IC50
# Sequence of p38α MAPK (Q16539 whole entry): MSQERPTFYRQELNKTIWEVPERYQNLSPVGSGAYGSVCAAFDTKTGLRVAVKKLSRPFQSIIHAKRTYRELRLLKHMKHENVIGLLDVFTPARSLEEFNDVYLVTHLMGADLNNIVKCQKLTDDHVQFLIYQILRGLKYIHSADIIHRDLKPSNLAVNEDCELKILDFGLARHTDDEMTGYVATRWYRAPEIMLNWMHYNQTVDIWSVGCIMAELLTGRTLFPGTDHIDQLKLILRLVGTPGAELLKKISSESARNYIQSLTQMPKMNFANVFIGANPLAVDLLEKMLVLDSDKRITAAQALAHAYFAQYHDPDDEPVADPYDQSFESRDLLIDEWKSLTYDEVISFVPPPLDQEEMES
# Procedure: Studies were undertaken to identify the possible biological target(s) of compound 69. The activation in neurons of PK such as PKCγ, ERK or p38 MAPK can contribute to pain hypersensitivity. Therefore, it was decided to screen compound 69 toward a panel of 50 PKs that provide a representative sampling of the human kinome (FIG. 3, Table 3) (Biochem. J. 2007, 408, 297-315). In this panel, p38α MAPK was identified as the privileged target, with 19% of kinase residual activity at 10 μM compound concentration.
# The selectivity of compound 69 was evaluated at 1 μM toward another panel containing all four p38 MAPK isoforms, ERK1, ERK2 as well as other protein kinases close to p38α MAPK in the kinome phylogenetic tree (FIG. 4, Table 4). […] Its IC50 toward p38α MAPK was determined, showing a value in the micromolar range (IC50=3.0±0.1 μM).
IC50 (p38α MAPK),Compound,"prevention of inflammatory MA (allodynic score, 6-g von Frey filament) [1]"
,"O=c1[nH]cc(Nc2ccccc2)cc1-c1ccncc1 [Compound 21, 5-(Phenylamino)-[3,4′-bipyridin]-2(1H)-one]",comparable gains of activity
,"O=c1[nH]cc(Nc2ccccc2)cc1-c1cccc2cccnc12 [Compound 23, 5-(Phenylamino)-3-(quinolin-8-yl)pyridin-2(1H)-one]",prevented the development of inflammatory MA
,"O=c1[nH]cc(Nc2ccccc2)cc1-c1cncnc1 [Compound 24, 5-(Phenylamino)-3-(pyrimidin-5-yl)pyridin-2(1H)-one]",prevented the development of inflammatory MA
,"CCOC(=O)c1ccccc1-c1cc(Nc2ccccc2)c[nH]c1=O [Compound 70, Ethyl 2-(2-oxo-5-(phenylamino)-1,2-dihydropyridin-3-yl)benzoate]",high activities
,"O=c1[nH]cc(Nc2ccccc2)cc1-c1ccccc1[N+](=O)[O-] [Compound 72, 3-(2-Nitrophenyl)-5-(phenylamino)pyridin-2(1H)-one]",prevented the development of inflammatory MA
,"CC(=O)c1cccc(-c2cc(Nc3ccccc3)c[nH]c2=O)c1 [Compound 75, 3-(3-Acetylphenyl)-5-(phenylamino)pyridin-2(1H)-one]",prevented the development of inflammatory MA
,"Cc1ccc(-c2cc(Nc3ccccc3)c[nH]c2=O)cc1 [Compound 77, 5-(Phenylamino)-3-(p-tolyl)pyridin-2(1H)-one]",prevented the development of inflammatory MA; also recorded: comparable gains of activity
,"O=c1[nH]cc(Nc2ccccc2)cc1-c1ccc(OC(F)(F)F)cc1 [Compound 79, 5-(Phenylamino)-3-(4-(trifluoromethoxy)phenyl)pyridin-2(1H)-one]",prevented the development of inflammatory MA
,"NC(=O)c1ccc(-c2cc(Nc3ccccc3)c[nH]c2=O)cc1 [Compound 81, 4-(2-Oxo-5-(phenylamino)-1,2-dihydropyridin-3-yl)benzamide]",prevented the development of inflammatory MA
,"O=c1[nH]cc(Nc2ccccc2)cc1-c1ccc(F)cc1F [Compound 82, 3-(2,4-Difluorophenyl)-5-(phenylamino)pyridin-2(1H)-one]",prevented the development of inflammatory MA
230 nM,"O=c1[nH]cc(Nc2ccccc2F)cc1-c1cccc2[nH]ccc12 [Compound 118, 5-((2-Fluorophenyl)amino)-3-(1H-indol-4-yl)pyridin-2(1H)-one]",
1420 nM,"O=c1[nH]cc(Nc2cccc(F)c2)cc1-c1cccc2[nH]ccc12 [Compound 119, 5-((3-Fluorophenyl)amino)-3-(1H-indol-4-yl)pyridin-2(1H)-one]",
430 nM,"O=c1[nH]cc(Nc2ccc(F)cc2)cc1-c1cccc2[nH]ccc12 [Compound 120, 5-((4-Fluorophenyl)amino)-3-(1H-indol-4-yl)pyridin-2(1H)-one]",
5250 nM,"COc1ccccc1Nc1c[nH]c(=O)c(-c2cccc3[nH]ccc23)c1 [Compound 121, 3-(1H-Indol-4-yl)-5-((2-methoxyphenyl)amino)pyridin-2(1H)-one]",
5530 nM,"COc1cccc(Nc2c[nH]c(=O)c(-c3cccc4[nH]ccc34)c2)c1 [Compound 122, 3-(1H-Indol-4-yl)-5-((3-methoxyphenyl)amino)pyridin-2(1H)-one]",
3670 nM,"COc1ccc(Nc2c[nH]c(=O)c(-c3cccc4[nH]ccc34)c2)cc1 [Compound 123, 3-(1H-Indol-4-yl)-5-((4-methoxyphenyl)amino)pyridin-2(1H)-one]",
1060 nM,"Cc1ccccc1Nc1c[nH]c(=O)c(-c2cccc3[nH]ccc23)c1 [Compound 130, 3-(1H-Indol-4-yl)-5-(o-tolylamino)pyridin-2(1H)-one]",
1040 nM,"O=c1[nH]cc(Nc2cccc(O)c2)cc1-c1cccc2[nH]ccc12 [Compound 134, 5-((3-hydroxyphenyl)amino)-3-(1H-indol-4-yl)pyridin-2(1H)-one]",
2720 nM,"O=c1[nH]cc(Nc2ccccc2Br)cc1-c1cccc2[nH]ccc12 [Compound 141, 5-((2-Bromophenyl)amino)-3-(1H-indol-4-yl)pyridin-2(1H)-one]",
660 nM,"O=c1[nH]cc(Nc2cccc(Br)c2)cc1-c1cccc2[nH]ccc12 [Compound 142, 5-((3-Bromophenyl)amino)-3-(1H-indol-4-yl)pyridin-2(1H)-one]",
2350 nM,"O=c1[nH]cc(Nc2ccc(Br)cc2)cc1-c1cccc2[nH]ccc12 [Compound 143, 5-((4-Bromophenyl)amino)-3-(1H-indol-4-yl)pyridin-2(1H)-one]",
